The source of these data is patent US5932242A, “Ether lipid-containing pharmaceutical compositions and therapeutic uses thereof” (The Liposome Company, Inc., priority 1996, dated 1999).

A short description of series [1]: Monolayer mean molecular area per molecule (MMAM) measurement, Langmuir-Blodgett mini-trough. Format: physicochemical. The conditions noted are these: single-lipid monolayer, 23° C., 10 mM HEPES, 150 mM NaCl, pH 7.2, extrapolated to zero surface pressure. The text has this: A measure of the amount of space occupied by a lipid molecule is the mean area ("MMAM") that a molecule of the lipid occupies in a monolayer formed of that lipid. MMAM values for various lipids can readily be determined by ordinarily skilled artisans given the teachings of this invention, for example, as set forth in Example 1 below. MMAM values can be determined by first forming a lipid monolayer on the surface of an aqueous medium contained within a suitable trough, by the drop-wise addition of a lipid solution to the surface of the aqueous medium. […] Surface pressures for the different surface areas are recorded, and area-vs.-pressure curves compiled. MMAM values are obtained from these curves by extrapolating the steepest portion of the curve to a lipid's surface area at zero pressure.
The mean area occupied by a lipid molecule in a monolayer formed by a combination of cone-shaped and inverted cone-shaped lipids could be calculated according to the equation A0 =X^1 ·A^1 +X^2 ·A^2 (see Ali et al., the contents of which are incorporated herein by reference), wherein "A0 " is the MMAM expected of the lipids in the two component system, X^1 and X^2 are the relative mole percentages of the lipids in the combination, and A^1 and A^2 are the measured MMAM values of the individual lipids. Accordingly, the combination of lipids in a two-component monolayer would be expected to result in a mean molecular area per lipid molecule ("MMAMexpected ") reflective of the relative proportions in which each of the constituent lipids is present in the combination. That is, calculated in accordance with the above equation, the MMAM value expected of the lipids would be additive.
The mean molecular area per molecule of formulations containing the ether lipid ET-18-OCH3 was determined using a Langmuir-Blodgett mini-trough equipped with a dual barrier mechanism and a Wilhelmy balance, all obtained from KSV Instruments (Trumbull, Conn.). ET-18-OCH3 formulations were prepared from lipid powders that were dissolved in a solvent system of hexane:ethanol 9:1. Single lipid solutions and mixtures were made to contain an overall lipid concentration of approximately 1.5 mM which was quantitated precisely by phosphate (Chen et al., 1956) and cholesterol assays (Rudel & Morris, 1973). Monolayers were formed by dropwise addition of sample on to the aqueous surface (10 mM HEPES, 150 mM NaCl buffer, pH 7.2) at the center of the trough. Sample was added until the surface pressure just started to rise above zero, at which time the exact volume of sample added was recorded. After waiting three minutes for solvent evaporation and monolayer stabilization, the surface area of the monolayer was reduced at a rate of 15 cm^2 /min, and surface pressure was recorded. The solution level was maintained 1 mm below the top edge of the trough to avoid leakage; contact was maintained with the barriers (composed of Delrin) due to their hydrophilic nature.
Pressure vs. area curves were compiled from data obtained as described above (see FIGS. 1 and 2), and MMAM values were determined by extrapolating the steepest portion of the curve to the value at zero surface pressure. […] All experiments were done at 23° C. […] MMAMs (A0) were determined for each lipid by extrapolation of the steepest portion of the curves to the value at zero surface pressure; and are as follows: ET-18-OCH3 : 72.8 Å^2; CHOL: 44.8 Å^2; DOPE: 82.3 Å^2; POPC: 82.0 Å^2; and, DOPC: 82.0 Å^2.

For series [2] the following is noted: art knowledge; cited from earlier work.
For a further series, the system named is human red blood cells. Description: Hemolysis of washed human red blood cells (H50). Format: cell-based. The conditions noted are these: concluded from hemolysis of 60 mole % ET-18-OCH3 /cholesterol SUVs. How it is done:
(§1) The hemolytic activity of ET-18-OCH3 /CHOL, DOPE, POPC or DOPC liposomes, prepared as described below in Example 2, have also been examined, as described hereinbelow in Example 3. Results, presented hereinbelow in FIG. 3, are in the form of the ET-18-OCH3 concentration in the various liposomes required to achieve hemolysis of 50% of the red blood cells present in a sample (H50).
(§2) […] All liposomes were extruded, in order to assure uniform size distribution.
(§3) Hemolysis was assessed as previously described (Perkins et al., 1992). Briefly, each sample was serially diluted with buffer solution and 0.3 ml of each diluted solution was mixed with 0.3 ml of washed human red blood cells [4% in PBS (v/v)]. For controls, 0.3 ml of the red blood cell suspension was mixed with either 0.3 ml of buffer solution (negative hemolysis control) or 0.3 ml of distilled water (positive hemolysis control). Samples and standards were placed in a 37° C. incubator and agitated for 20 hours. Tubes were centrifuged at low speed (2000 g) for 10 minutes to pellet RBCs. Two hundred μl of the supernatant was removed and mixed with 1 ml of water. Hemolysis was quantitated by absorbance at 550 nm using a Shimadzu 2101 UV-Vis Scanning Spectrophotometer (Shimadzu Corp., Kyoto, Japan). One hundred percent hemolysis was defined as the maximum amount of hemolysis obtained from free ET-18-OCH3.

A short description of series [3]: Hemolysis of washed human red blood cells (H50). In kind it is cell-based. To be noted: human, red blood cells. How it is done: as §1, §2, §3

The structures appear in SMILES notation.

Turning to `CC(C)CCC[C@@H](C)[C@H]1CC[C@H]2[C@@H]3CC=C4C[C@@H](O)CC[C@]4(C)[C@H]3CC[C@]12C` [CHOL, cholesterol], the “MMAM (A0) of individual lipid” value in series [1] is on record as 44.8 Å^2. Besides, the packing parameter in series [2] is 1.2-1.3.

For `CCCCCCCC/C=C\CCCCCCCC(=O)OCC(COP(=O)([O-])OCC[N+](C)(C)C)OC(=O)CCCCCCC/C=C\CCCCCCCC` (stereo not drawn) [DOPC, dioleoyl phosphatidylcholine], the “MMAM (A0) of individual lipid” value in series [1] is 82.0 Å^2.

Consider `CCCCCCCC/C=C\CCCCCCCC(=O)OCC(COP(=O)(O)OCCN)OC(=O)CCCCCCC/C=C\CCCCCCCC` (stereo not drawn) [DOPE, dioleoyl phosphatidylethanolamine], for which, in series [1], the “MMAM (A0) of individual lipid” value was 82.3 Å^2. In addition, the packing parameter in series [2] is on record as 1.2-1.3.

Consider `CCCCCCCCCCCCCCCCCCOC[C@H](COP(=O)([O-])OCC[N+](C)(C)C)OC` [ET-18-OCH3, 1-O-octadecyl-2-O-methyl-sn-3-phosphorylcholine], for which, in the series on human red blood cells, the “Ability to form stable liposome structures” value was “does not form stable liposome structures above a 1:1 stoichiometry”. Besides, the HC50 (in general, the concentration giving 50% haemolysis) at 20 h in series [3] is 16 µM. The “MMAM (A0) of individual lipid” value in series [1] is on record as 72.8 Å^2.

Take `CCCCCCCC/C=C\CCCCCCCC(=O)OC(COC(=O)CCCCCCCCCCCCCCC)COP(=O)([O-])OCC[N+](C)(C)C` (stereo not drawn) [POPC, palmitoyloleoyl phosphatidylcholine]: the “MMAM (A0) of individual lipid” value in series [1] is 82.0 Å^2.
